Results from ChEMBL document CHEMBL1201862, “PubChem BioAssay data set” (2004).
Values joined by “and” are separate entries in the source; they are usually repeats but may differ in a detail not shown here. Equal entries are not always repeated.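 Grown in 96-well plates, cells were treated for 48 hours with each compound at five concentrations. Insufficient inhibition: endpoint recorded as highest concentration tested. The concentration for 50% growth inhibition is given as GI50.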 Active and inactive are the calls of the source. Cut-off read from the data, not from the text of the source: active = GI50 up to about 1.1 µM and inactive = higher.

Key:
Test in all cases: NCI anticancer screen, dose series, 48 h
CAKI-1 = tested on: CAKI-1
HCC 2998 = tested on: HCC 2998
HCT-15 = tested on: HCT-15
KM12 = tested on: KM12
M14 = tested on: M14
NCI-H23 = tested on: NCI-H23
OVCAR-3 = tested on: OVCAR-3
OVCAR-4 = tested on: OVCAR-4
OVCAR-8 = tested on: OVCAR-8
RXF 393 = tested on: RXF 393
SF-295 = tested on: SF-295
SF-539 = tested on: SF-539
SK-MEL-28 = tested on: SK-MEL-28
SNB-19 = tested on: SNB-19
SR = tested on: SR
UACC-257 = tested on: UACC-257
UO-31 = tested on: UO-31

Structure (SMILES)	GI50 (CAKI-1)	GI50 (HCC 2998)	GI50 (HCT-15) [µM]	GI50 (KM12)	GI50 (M14)	GI50 (NCI-H23)	GI50 (OVCAR-3)	GI50 (OVCAR-4)	GI50 (OVCAR-8)	GI50 (RXF 393)	GI50 (SF-295)	GI50 (SF-539)	GI50 (SK-MEL-28)	GI50 (SNB-19)	GI50 (SR)	GI50 (UACC-257)	GI50 (UO-31)
CCc1cccc(C(C)CC)c1/N=C(/NC(=O)c1ccccc1C(=O)N/C(=N/c1c(CC)cccc1C(C)CC)SC)SC (stereo not drawn)	42.2 µM (inactive)	49.8 µM (inactive)	40.1	36 µM (inactive)	20 µM (inactive)	31.9 µM (inactive)	36.6 µM (inactive)	54.3 µM (inactive)	59.2 µM (inactive)	35.5 µM (inactive)	37.4 µM (inactive)	26.5 µM (inactive)	45 µM (inactive)	49.8 µM (inactive)	39.6 µM (inactive)	54.3 µM (inactive)	30.6 µM (inactive)
CC(=O)Nc1ccc(-c2nnc(SCC(=O)Nc3ccc(Cl)cc3)o2)cc1	18 µM (inactive)	17 µM (inactive)	13.9	13.7 µM (inactive)	14.5 µM (inactive)	3.39 µM (inactive)	9.06 µM (inactive)	13.1 µM (inactive)	12.5 µM (inactive)	10 µM (inactive)	11.3 µM (inactive)	16 µM (inactive)	13.2 µM (inactive)	20 µM (inactive)		16.4 µM (inactive)	14.4 µM (inactive)
O=C(NC(=O)c1cn(CCNCCO)c(=O)[nH]c1=O)OCc1ccccc1	> 100 µM (inactive)		> 100	> 100 µM (inactive)	> 100 µM (inactive)	> 100 µM (inactive)	> 100 µM (inactive)	> 100 µM (inactive)	> 100 µM (inactive)	> 100 µM (inactive)	> 100 µM (inactive)	> 100 µM (inactive)	> 100 µM (inactive)		> 100 µM (inactive)		
COc1cccc2c1C(=O)c1c(O)c3c(c(O)c1C2=O)C[C@@](O)(C(=O)CO)C[C@@H]3OC1CC(N)C(O)C(C)O1 (stereo partly drawn)	269 nM (active) and 176 nM (active)	314 nM (active) and 191 nM (active)		254 nM (active) and 366 nM (active)		76.4 nM (active) and 105 nM (active)	394 nM (active) and 474 nM (active)	1.16 µM (inactive) and 671 nM (active)	200 nM (active) and 136 nM (active)					54.3 nM (active) and 92 nM (active)	10 nM (active) and 12.2 nM (active)	215 nM (active) and 337 nM (active)	
CN(C)CCONC(=O)C12CC3CC(CC(C3)C1)C2	> 100 µM (inactive)		> 100	> 100 µM (inactive)	> 100 µM (inactive)	> 100 µM (inactive)	> 100 µM (inactive)		> 100 µM (inactive)	> 100 µM (inactive)	> 100 µM (inactive)	> 100 µM (inactive)	> 100 µM (inactive)	> 100 µM (inactive)	> 100 µM (inactive)	> 100 µM (inactive)	> 100 µM (inactive)
CCCCCC(=O)N[C@H]1CCc2cc(OC)c(OC)c(OC)c2-c2ccc(SC)c(=O)cc21	0.0914 µM (active)	0.0212 µM (active)	0.0209	< 0.01 µM (active)	0.016 µM (active)	< 0.01 µM (active)	0.0153 µM (active)	17.5 µM (inactive)	0.0253 µM (active)		0.0155 µM (active)	0.0158 µM (active)	0.0223 µM (active)	0.0258 µM (active)	0.00421 µM (active)	< 0.01 µM (active)	0.0308 µM (active)
COC(=O)CCC(NC(=S)N/N=C(\C)c1ccccn1)C(=O)OC (stereo not drawn)		> 100 µM (inactive)	40.9	91.6 µM (inactive)	31.6 µM (inactive)	> 100 µM (inactive)	38.8 µM (inactive)	> 100 µM (inactive)	66.8 µM (inactive)	35 µM (inactive)	59.2 µM (inactive)	85.7 µM (inactive)	66.7 µM (inactive)	> 100 µM (inactive)	> 10 µM (inactive)	97.5 µM (inactive)	38.1 µM (inactive)
COc1c2c(c(OC)c3c(=O)cc(C/C(=N/NC(=O)C[n+]4ccccc4)C(=O)Nc4cc(C)ccc4C)oc13)OCO2	> 100 µM (inactive)	> 100 µM (inactive)	> 100	> 100 µM (inactive)	> 100 µM (inactive)	> 100 µM (inactive)	> 100 µM (inactive)	> 100 µM (inactive)	> 100 µM (inactive)	> 100 µM (inactive)		> 100 µM (inactive)	> 100 µM (inactive)	> 100 µM (inactive)		> 100 µM (inactive)	> 100 µM (inactive)
CCCC(C)n1c(C)nc2c1C(=O)c1ccccc1C2=O (stereo not drawn)		40.4 µM (inactive)	5.97	22.9 µM (inactive)	34.6 µM (inactive)	15.6 µM (inactive)	25.9 µM (inactive)	36.1 µM (inactive)	22.8 µM (inactive)	20 µM (inactive)	23.7 µM (inactive)	13 µM (inactive)	33.7 µM (inactive)	37 µM (inactive)	> 100 µM (inactive)	22.4 µM (inactive)	24.7 µM (inactive)
Cc1nc2c(n1CCN(C)C)C(=O)c1ccccc1C2=O		19.7 µM (inactive)	12.8	15.2 µM (inactive)	11.8 µM (inactive)	12.1 µM (inactive)	7.03 µM (inactive)	15.6 µM (inactive)	17.2 µM (inactive)	19.4 µM (inactive)	15.7 µM (inactive)	19.1 µM (inactive)	53.6 µM (inactive)	27.7 µM (inactive)	11.7 µM (inactive)	14 µM (inactive)	21 µM (inactive)
C=CCO[C@H]1CC[C@@]2(C)C(CC[C@]3(C)C2CC=C2[C@@H]4[C@@H](C)C(C)CC[C@]4(C(=O)O)CCC23C)C1(C)C (stereo partly drawn)	17.9 µM (inactive)	17.1 µM (inactive)		16.1 µM (inactive)	17.5 µM (inactive)	14.9 µM (inactive)	15.7 µM (inactive)	17.6 µM (inactive)	18.4 µM (inactive)	6.05 µM (inactive)	14.2 µM (inactive)	17 µM (inactive)	15.6 µM (inactive)	17.1 µM (inactive)	13.8 µM (inactive)	16.9 µM (inactive)	15 µM (inactive)
CC(=O)O[C@H]1CC[C@@]2(C)C(=CC[C@@H]3C2CC[C@]2(C)Nc4nc5ccccc5cc4CC32)C1 (stereo partly drawn)	4.28 µM (inactive)	2.98 µM (inactive)	2.51	3.88 µM (inactive)	2.19 µM (inactive)	12.4 µM (inactive)	2.5 µM (inactive)	8.53 µM (inactive)	3.13 µM (inactive)	2.07 µM (inactive)	3.78 µM (inactive)	3.78 µM (inactive)		2.97 µM (inactive)		3.66 µM (inactive)	4.92 µM (inactive)
CCN1C(=O)C(=CN)C(=O)N(CC)C1=O	> 100 µM (inactive)	> 100 µM (inactive)	> 100	> 100 µM (inactive)	> 100 µM (inactive)	> 100 µM (inactive)	> 100 µM (inactive)	> 100 µM (inactive)	> 100 µM (inactive)	> 100 µM (inactive)	> 100 µM (inactive)	> 100 µM (inactive)	> 100 µM (inactive)	> 100 µM (inactive)		> 100 µM (inactive)	58.2 µM (inactive)
COc1ccc(C2S/C(=C\c3ccc(OC)cc3OC)C(=O)N2NC(=O)Cc2ccccc2)cc1 (stereo not drawn)	> 100 µM (inactive)		> 100	> 100 µM (inactive)	> 100 µM (inactive)	> 100 µM (inactive)		> 100 µM (inactive)	> 100 µM (inactive)	> 100 µM (inactive)	> 100 µM (inactive)	> 100 µM (inactive)			> 100 µM (inactive)	> 100 µM (inactive)	> 100 µM (inactive)
COc1c(CC(C)=O)ccc2c1C(=O)c1ccc(C=O)c(OC(C)=O)c1C2=O	17.8 µM (inactive)	11.5 µM (inactive)	5.57	14.6 µM (inactive)	12 µM (inactive)	> 10 µM (inactive)	13.1 µM (inactive)	14.6 µM (inactive)	9.51 µM (inactive)	4.09 µM (inactive)	21.2 µM (inactive)	7.89 µM (inactive)	11 µM (inactive)	19.9 µM (inactive)		14.3 µM (inactive)	20.4 µM (inactive)
Cc1[nH]c2ccccc2c1C1CC(=O)NC1=O (stereo not drawn)	> 100 µM (inactive)	> 100 µM (inactive)	> 100	> 100 µM (inactive)	> 100 µM (inactive)	> 100 µM (inactive)	> 100 µM (inactive)	> 100 µM (inactive)	> 100 µM (inactive)	> 100 µM (inactive)	> 100 µM (inactive)	> 100 µM (inactive)	> 100 µM (inactive)			> 100 µM (inactive)	> 100 µM (inactive)
CC(C)(c1ccccc1)c1ccc(Oc2ccc3c(c2)-c2nc-3nc3[nH]c(nc4nc(nc5[nH]c(n2)c2ccc(Oc6ccc(C(C)(C)c7ccccc7)cc6)cc52)-c2cc(Oc5ccc(C(C)(C)c6ccccc6)cc5)ccc2-4)c2ccc(Oc4ccc(C(C)(C)c5ccccc5)cc4)cc32)cc1		> 100 µM (inactive)		> 100 µM (inactive)	> 100 µM (inactive)	> 100 µM (inactive)			> 100 µM (inactive)	23.9 µM (inactive)		35 µM (inactive)	> 100 µM (inactive)	92 µM (inactive)		> 100 µM (inactive)	> 100 µM (inactive)
O=C1c2nn(-c3ccccc3)nc2C(c2ccccc2)N1c1ccccc1 (stereo not drawn)	> 100 µM (inactive)	> 100 µM (inactive)	> 100	> 100 µM (inactive)	> 100 µM (inactive)	> 100 µM (inactive)	> 100 µM (inactive)	> 100 µM (inactive)	52.8 µM (inactive)		41.7 µM (inactive)	59.8 µM (inactive)	> 100 µM (inactive)	> 100 µM (inactive)	> 100 µM (inactive)	> 100 µM (inactive)	> 100 µM (inactive)
